Laboratory results: patent US20250090514A1, “METHOD OF TREATING CANCER” (Laekna Limited, priority 2019, published 2025)
Where two headings read alike, the source gives them in different places.

What was measured:
[1] = Body weight and tolerability in the Mini-PDX study; format: in vivo
Experimental: During the study, the care and use of animals were conducted in accordance with the regulations of the Association for Assessment and Accreditation of Laboratory Animal Care (AAALAC). After Mini-PDX device inoculation, the animals were checked daily for morbidity and mortality. At the time of routine monitoring, the animals were checked for any effects of treatments on normal behavior such as mobility, visual estimation of food and water consumption, body weight gain/loss, eye/hair matting and any other abnormal effect.
The body weight of mice was measured every day, and relative change of bodyweight was calculated for each mouse according to the following formula: RCBW(%)=(BWi−BW0)/BW0×100, BWi is the body weight after treatment on a given day, BW0 is the bodyweight on the first day of treatment.

[2] = tested on: metastatic castration-resistant prostate cancer (mCRPC) patients; conditions: cited from earlier work
aldosterone synthesis = test: Example C: aldosterone level and hyperaldosteronism; format: in vivo, human
Text: Hyperaldosteronism is a disorder with several serious clinical symptoms including hypertension, hypokalemia, fatigue, headache, muscle weakness and numbness.

## Cn1ncc(Cl)c1-c1cc(C(=O)N[C@H](CN)Cc2cccc(F)c2)sc1Cl [afuresertib, N-{(1S)-2-amino-1-[(3-fluorophenyl)methyl]ethyl}-5-chloro-4-(4-chloro-1-methyl-1H-pyrazol-5-yl)-2-thiophenecarboxamide]
[1]; afuresertib 75 mg/kg, CFG920 300 mg/kg
  tolerability in the animals: tolerated well
[1]; relative change of body weight from day 0, afuresertib 75 mg/kg QD, CFG920 300 mg/kg BID
  Average RCBW (%)/Day 6: −8.73%

## Cc1ccncc1N1CCN(c2ccnc(Cl)c2)C1=O [CFG920, 1-(2-chloro-pyridin-4-yl)-3-(4-methyl-pyridin-3-yl)-imidazolidin-2-one]
[2]; chemotherapy-naive mCRPC patients (32 of 124)
  unconfirmed rate of ≥50% PSA decline from baseline: 26%
[2]; mCRPC patients with previous chemotherapy (16 of 57)
  unconfirmed rate of ≥50% PSA decline from baseline: 28%
Aldosterone synthesis; baseline to Day 1 of Cycle 3, except Day 1 of Cycle 2 (similar to baseline), combination therapy
  aldosterone level vs baseline: lower than the baseline level
Aldosterone synthesis; during treatment with the combination therapy
  clinical symptoms of hyperaldosteronism: did not cause any clinical symptoms of hyperaldosteronism
